From patent publication US12180187B2, “1-phenyl-5-azinylpyrazolyl-3-oxyalkyl acids and their use for controlling unwanted plant growth” (BAYER AKTIENGESELLSCHAFT, priority 2019, dated 2024)

Experiments:
[1] = test system: ECHCG; experiment: Pre-emergence action against ECHCG, 1280 g/ha; type: in vivo, Echinochloa crus-galli; conditions: visual scoring after about 3 weeks vs untreated controls, 100% = plants have died, 0% = like control plants
Method in brief: (§1)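 Mono- and dicot weed seeds sown in sandy loam were treated on the covering soil surface with WP or EC formulations plus 0.5% additive at 600 L water/ha. Pots stayed in a greenhouse; damage was scored visually after ~3 weeks as percent versus untreated controls (100% = dead).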

[2] = test system: POAAN; experiment: Pre-emergence action against POAAN, 1280 g/ha; type: in vivo, Poa annua; conditions: visual scoring after about 3 weeks vs untreated controls, 100% = plants have died, 0% = like control plants
Method in brief: as §1

[3] = test system: SETVI; experiment: Pre-emergence action against SETVI, 1280 g/ha; type: in vivo, Setaria viridis; conditions: visual scoring after about 3 weeks vs untreated controls, 100% = plants have died, 0% = like control plants
Method in brief: as §1

[4] = test system: AMARE; experiment: Pre-emergence action against AMARE, 1280 g/ha; type: in vivo, Amaranthus retroflexus; conditions: scored visually after about 3 weeks vs untreated controls (100% = plants have died)
Method in brief: as §1

[5] = test system: MATIN; experiment: Pre-emergence action against MATIN, 1280 g/ha; type: in vivo, Tripleurospermum inodorum (Matricaria inodora); conditions: scored visually after about 3 weeks vs untreated controls (100% = plants have died)
Method in brief: as §1

[6] = test system: STEME; experiment: Pre-emergence action against STEME, 1280 g/ha; type: in vivo, Stellaria media; conditions: scored visually after about 3 weeks vs untreated controls (100% = plants have died)
Method in brief: as §1

[7] = test system: ALOMY; experiment: Pre-emergence action at 320 g/ha against ALOMY; type: in vivo, Alopecurus myosuroides; conditions: scored visually after about 3 weeks vs untreated controls (100% = plants have died)
Method in brief: (§2)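 Percent herbicidal activity was assessed by eye roughly three weeks post-application, comparing with untreated plants. Treatment consisted of applying formulated compound in water plus 0.5% additive to covering soil at 600 l/ha before emergence.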

[8] = test system: AVEFA; experiment: Pre-emergence action at 320 g/ha against AVEFA; type: in vivo; conditions: visual scoring after about 3 weeks vs untreated controls
Method in brief: as §2

[9] = test system: DIGSA; experiment: Pre-emergence action at 320 g/ha against DIGSA; type: in vivo, Digitaria sanguinalis; conditions: visual scoring after about 3 weeks vs untreated controls
Method in brief: as §2

[10] = test system: SETVI; experiment: Pre-emergence action at 320 g/ha against SETVI; type: in vivo, Setaria viridis; conditions: visual scoring after about 3 weeks vs untreated controls
Method in brief: as §2

[11] = test system: AMARE; experiment: Pre-emergence action at 320 g/ha against AMARE; type: in vivo, Amaranthus retroflexus; conditions: visual scoring after about 3 weeks vs untreated controls
Method in brief: as §2

[12] = test system: POLCO; experiment: Pre-emergence action at 320 g/ha against POLCO; type: in vivo, Fallopia convolvulus (Polygonum convolvulus); conditions: visual scoring after about 3 weeks vs untreated controls
Method in brief: as §2

[13] = test system: VERPE; experiment: Pre-emergence action at 320 g/ha against VERPE; type: in vivo, Veronica persica; conditions: visual scoring after about 3 weeks vs untreated controls
Method in brief: as §2

[14] = test system: ALOMY; experiment: Post-emergence action against ALOMY, 1.28 kg/ha; type: in vivo, Alopecurus myosuroides; conditions: dosage 1280 g/ha, visual rating about 3 weeks after treatment vs untreated controls
Method in brief: (§3)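 Greenhouse-grown weeds (sandy loam, twin-sown pots) were treated 2–3 weeks post-sowing at one leaf. The spray was an aqueous WP/EC preparation plus 0.5% additive, applied at 600 L/ha. Scoring was visual at ~3 weeks, 0–100% versus untreated controls.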

[15] = test system: POAAN; experiment: Post-emergence action against POAAN, 1.28 kg/ha; type: in vivo, Poa annua; conditions: dosage 1280 g/ha, visual rating about 3 weeks after treatment vs untreated controls
Method in brief: as §3

Row | SMILES | Pre-emergence action against ECHCG [1] | Pre-emergence action against POAAN [2] | Pre-emergence action against SETVI [3] | Pre-emergence action against AMARE [4] | Pre-emergence action against MATIN [5] | Pre-emergence action against STEME [6] | Pre-emergence action at 320 g/ha against ALOMY in % [7] | Pre-emergence action against AVEFA in % [8] | Pre-emergence action against DIGSA in % [9] | Pre-emergence action against SETVI in % [10] | Pre-emergence action against AMARE in % [11] | Pre-emergence action against POLCO in % [12] | Pre-emergence action against VERPE in % [13] | Post-emergence action against ALOMY [14] | Post-emergence action against POAAN [15]
1 | O=C(O)COc1nn(-c2ccccc2F)c(-c2cncc(F)c2)c1Br [VII-025] | 100% | 100% | 100% | 100% | 100% | 100% | 100% | 80% | 100% | 100% | 100% | 100% | 100% | 100% | 100%
2 | COC(=O)COc1nn(-c2ccccc2F)c(-c2ccc(F)nc2)c1C(F)(F)F [VII-031] | 90% | 100% | 100% | 100% | 100% | 100% | 100% | 100% | 100% | 100% | 100% | 100% | 100% | 100% | 100%
3 | COC(=O)COc1nn(-c2ccccc2F)c(-c2cncc(F)c2)c1Br [VII-035] | 100% | 100% | 100% | 100% | 100% | 100% | 100% | 90% | 100% | 100% | 100% | 90% | 100% | 100% | 100%
4 | O=C(O)COc1nn(-c2ccccc2F)c(-c2ccc(F)nc2)c1I [VII-037] | 100% | 100% | 100% | 100% | 100% | 100% | 100% | 90% | 100% | 100% | 100% | 100% | 100% | 100% | 100%
5 | COC(=O)COc1nn(-c2ccccc2F)c(-c2ccc(F)nc2)c1F [VII-040] | 100% | 100% | 100% | 100% | 100% | 100% | 100% | 100% | 100% | 100% | 100% | 90% | 100% | 100% | 100%
